system: pFGFR4 in MDA-MB-453 cells; assay: FGFR4 signaling, pFGFR4 (MDA); Western blot (Method A), MSD (Method B), ELISA (Method C); format: cell-based; conditions: Homo sapiens, MDA-MB-453, MDA-MB-453 cells; Method B (MSD) for signaling EC50 determination
Protocol: The MDA-MB-453 protein concentrations were determined by a BCA Assay (Pierce, Rockford, Ill.). A sample of 50-100 μg of each lysate was separated by a 4-12% gradient (SDS-PAGE (Invitrogen)), transferred to a nitrocellulose membrane (Biorad, Hercules, Calif.), and probed with specific antibodies. Phospho-protein signals were quantitated using Odyssey Infrared Imaging (Li-Cor Biosciences).
To assess phospho-FGFR signaling, the blots were probed with anti-Phospho-FGFR (Y653/Y654) and total anti-FGFR antibodies. The phospho-FGFR signal was normalized to total FGFR expression for each sample.

| Structure (SMILES) | EC50 |
| --- | --- |
| C=CC(=O)N[C@H]1CCCC[C@H]1Nc1ncc2c(n1)N(Cc1nccs1)C(=O)N(c1c(Cl)c(OC)cc(OC)c1Cl)C2 [Compound I-92] | 101 to 500 nM |
| C=CC(=O)N[C@@H]1CCCC[C@@H]1Nc1ncc2c(n1)N(Cc1nccs1)C(=O)N(c1c(Cl)c(OC)cc(OC)c1Cl)C2 [Compound I-93] | > 1000 nM |
| C=CC(=O)Nc1ccccc1Nc1ncc2c(n1)N(CC(=O)OC(C)(C)C)C(=O)N(c1cc(OC)cc(OC)c1)C2 [Compound I-96] | > 1000 nM |
| C=CC(=O)NC1CCCCC1Nc1ncc2c(n1)N(CC1CC1)C(=O)N(c1cc(OC)cc(OC)c1Cl)C2 (stereo not shown) [Compound I-101] | 101 to 500 nM |
| C=CC(=O)Nc1ccccc1Nc1ncc2c(n1)N(CC)C(=O)N(CC)C2 [Compound I-120] | > 1000 nM |
| C=CC(=O)Nc1cc(CN2CCN(CC)CC2)ccc1Nc1ncc2c(n1)N(C)C(=O)N(c1cc(OC)cc(OC)c1)C2 [Compound I-122] | 101 to 500 nM |
| C=CC(=O)Nc1ccccc1Nc1ncc2nc(-c3cc(OC)cc(OC)c3)c(=O)n(C)c2n1 [Compound I-128] | > 1000 nM |
| CCC(=O)Nc1ccccc1Nc1ncc2c(n1)N(C)C(=O)N(c1c(Cl)c(OC)cc(OC)c1Cl)C2 [Compound I-235] | 501 to 999 nM |
| CCC(=O)Nc1ccccc1Nc1ncc2c(n1)N(Cc1ccccc1)C(=O)N(c1c(Cl)c(OC)cc(OC)c1Cl)C2 [Compound I-236] | 101 to 500 nM |
| COc1cc(OC)cc(N2Cc3cnc(Nc4ccccc4)nc3N(C)C2=O)c1 [Compound I-237] | 101 to 500 nM |

same assay, conditions: Homo sapiens; MDA-MB-453 cells; Method A (Western blot) for signaling EC50 determination

| EC50 | Structure (SMILES) |
| --- | --- |
| < 100 nM | C=CC(=O)NCc1ccccc1Nc1ncc2c(n1)N(Cc1cccc(NC(=O)CC)c1)C(=O)N(c1c(Cl)c(OC)cc(OC)c1Cl)C2 [Compound I-179] |
| < 100 nM | C=CC(=O)Nc1ccc(Nc2ncc3c(n2)N(Cc2cccc(NC(=O)CC)c2)C(=O)N(c2c(Cl)c(OC)cc(OC)c2Cl)C3)cc1 [Compound I-233] |

same assay, conditions: Homo sapiens; MDA-MB-453 cells; Method B (MSD) for signaling EC50 determination

| EC50 | Structure (SMILES) |
| --- | --- |
| < 100 nM | C=CC(=O)Nc1ccccc1Nc1ncc2c(n1)N(CC(F)F)C(=O)N(c1c(Cl)c(OC)cc(OC)c1Cl)C2 [Compound I-103] |
| < 100 nM | C=CC(=O)Nc1ccccc1Nc1ncc2c(n1)N(C)C(=O)N(c1cc(OC)cc(OC)c1F)C2 [Compound I-108] |
| < 100 nM | C=CC(=O)Nc1ccccc1Nc1ncc2c(n1)N(CC1CC1)C(=O)N(c1cc(OC)cc(OC)c1F)C2 [Compound I-109] |
| < 100 nM | C=CC(=O)Nc1cc(N2CCN(C(=O)CCC(=O)O)CC2)ccc1Nc1ncc2c(n1)N(C)C(=O)N(c1c(Cl)c(OC)cc(OC)c1Cl)C2 [Compound I-123] |
| < 100 nM | C=CC(=O)Nc1ccccc1Nc1ncc2c(n1)N(CC1CC1)C(=O)N(c1c(Cl)c(OC)cc(OC)c1Cl)C2 [Compound I-130] |
| < 100 nM | C=CC(=O)Nc1ccccc1Nc1ncc2c(n1)N(Cc1csc(C)n1)C(=O)N(c1c(Cl)c(OC)cc(OC)c1Cl)C2 [Compound I-134] |
| < 100 nM | C=CC(=O)Nc1ccccc1Nc1ncc2c(n1)N(Cc1ccnc(N)c1)C(=O)N(c1c(Cl)c(OC)cc(OC)c1Cl)C2 [Compound I-135] |
| < 100 nM | C=CC(=O)Nc1ccccc1Nc1ncc2c(n1)N(Cc1ccn(C)n1)C(=O)N(c1c(Cl)c(OC)cc(OC)c1Cl)C2 [Compound I-136] |
| < 100 nM | C=CC(=O)Nc1cc(-c2cnn(C)c2)ccc1Nc1ncc2c(n1)N(C)C(=O)N(c1c(Cl)c(OC)cc(OC)c1Cl)C2 [Compound I-141] |
| 101 to 500 nM | C=C(C)C(=O)Nc1ccccc1Nc1ncc2c(n1)N(C)C(=O)N(c1c(Cl)c(OC)cc(OC)c1Cl)C2 [Compound I-142] |
| < 100 nM | C=CC(=O)Nc1ccccc1Nc1ncc2c(n1)N(Cc1ccc(F)c(N)c1)C(=O)N(c1c(Cl)c(OC)cc(OC)c1Cl)C2 [Compound I-144] |
| < 100 nM | C=CC(=O)Nc1cc(-c2nnn(C)n2)ccc1Nc1ncc2c(n1)N(C)C(=O)N(c1c(Cl)c(OC)cc(OC)c1Cl)C2 [Compound I-145] |
| < 100 nM | C=CC(=O)N[C@H]1CCCC[C@H]1Nc1ncc2c(n1)N(Cc1ccn(C)n1)C(=O)N(c1c(Cl)c(OC)cc(OC)c1Cl)C2 [Compound I-147] |
| < 100 nM | C=CC(=O)N[C@H]1CCCC[C@H]1Nc1ncc2c(n1)N(Cc1cnn(C)c1)C(=O)N(c1c(Cl)c(OC)cc(OC)c1Cl)C2 [Compound I-148] |
| < 100 nM | C=CC(=O)Nc1cc(C(=O)NC2CCN(C)CC2)ccc1Nc1ncc2c(n1)N(C)C(=O)N(c1c(Cl)c(OC)cc(OC)c1Cl)C2 [Compound I-150] |
| < 100 nM | C=CC(=O)N[C@H]1CCCC[C@H]1Nc1ncc2c(n1)N(Cc1cn[nH]c1)C(=O)N(c1c(Cl)c(OC)cc(OC)c1Cl)C2 [Compound I-152] |
| < 100 nM | C=CC(=O)NCc1ccccc1Nc1ncc2c(n1)N(C)C(=O)N(c1c(Cl)c(OC)cc(OC)c1Cl)C2 [Compound I-181] |

same assay, conditions: Homo sapiens; MDA-MB-453 cells; Method C (ELISA) for signaling EC50 determination

| EC50 | Structure (SMILES) |
| --- | --- |
| < 100 nM | C=CC(=O)Nc1ccccc1CNc1ncc2c(n1)N(Cc1cccc(NC(=O)CC)c1)C(=O)N(c1c(Cl)c(OC)cc(OC)c1Cl)C2 [Compound I-180] |

system: pFGFR4 in Huh7 cells; assay: FGFR4 signaling, pFGFR4 (Huh); MSD (Method B); format: cell-based; conditions: Homo sapiens, Huh-7, read-out: Signaling EC50 (nM) pFGFR4 (Huh)

| Structure (SMILES) | EC50 |
| --- | --- |
| C=CC(=O)NC1CCCCC1Nc1ncc2c(n1)N(C)C(=O)N(c1c(Cl)c(OC)cc(OC)c1Cl)C2 (racemic) [Compound I-19] | 101 to 500 nM |
| C=CC(=O)Nc1ccccc1Nc1ncc2c(n1)N(C1CCN(CC)CC1)C(=O)N(c1cc(OC)cc(OC)c1)C2 [Compound I-80] | > 1000 nM |
| C=CC(=O)Nc1ccccc1Nc1ncc2c(n1)N(C1CCNCC1)C(=O)N(c1cc(OC)cc(OC)c1)C2 [Compound I-81] | > 1000 nM |
| C=CC(=O)N[C@H]1CCCC[C@H]1Nc1ncc2c(n1)N(C)C(=O)N(c1c(Cl)c(OC)cc(OC)c1Cl)C2 [Compound I-95] | 101 to 500 nM |
| C=CC(=O)N[C@H]1CCCC[C@H]1Nc1ncc2c(n1)N(Cc1cscn1)C(=O)N(c1c(Cl)c(OC)cc(OC)c1Cl)C2 [Compound I-114] | 101 to 500 nM |
| C=CC(=O)Nc1cc(N2CCN(C(=O)CCCC(=O)NCCCOCCOCCOCCCNC(=O)CCCC[C@@H]3SC[C@@H]4NC(=O)N[C@@H]43)CC2)ccc1Nc1ncc2c(n1)N(C)C(=O)N(c1c(Cl)c(OC)cc(OC)c1Cl)C2 [Compound I-127] | 101 to 500 nM |

same assay, conditions: Homo sapiens, Huh-7; Huh7 cells; read-out: Signaling EC50 (nM) pFGFR4 (Huh)

| EC50 | Structure (SMILES) |
| --- | --- |
| 101 to 500 nM | C=CC(=O)NC1CCCCC1Nc1ncc2c(n1)N(Cc1cccc(NC(=O)CC)c1)C(=O)N(c1c(Cl)c(OC)cc(OC)c1Cl)C2 (racemic) [Compound I-8] |
| < 100 nM | C=CC(=O)NC1COCC1Nc1ncc2c(n1)N(C)C(=O)N(c1c(F)c(OC)cc(OC)c1F)C2 (stereo not shown) [Compound I-198] |
| 101 to 500 nM | C=CC(=O)NC1CS(=O)(=O)CC1Nc1ncc2c(n1)N(C)C(=O)N(c1c(Cl)c(OC)cc(OC)c1Cl)C2 (stereo not shown) [Compound I-200] |
| 101 to 500 nM | C=CC(=O)NC1CN(c2ccncn2)CC1Nc1ncc2c(n1)N(C)C(=O)N(c1c(Cl)c(OC)cc(OC)c1Cl)C2 (stereo not shown) [Compound I-201] |
| < 100 nM | C=CC(=O)NC1CN(c2ccn(C)n2)CC1Nc1ncc2c(n1)N(C)C(=O)N(c1c(Cl)c(OC)cc(OC)c1Cl)C2 (stereo not shown) [Compound I-204] |
| < 100 nM | C=CC(=O)NC1COCC1Nc1ncc2c(n1)N(C)C(=O)N(c1c(F)c(OC)cc(OC)c1Cl)C2 (stereo not shown) [Compound I-206] |
| > 1000 nM | C=CC(=O)NC1COCC1Nc1ncc2c(n1)N(C)C(=O)N(c1ccc(OC)cc1)C2 (stereo not shown) [Compound I-209] |
| < 100 nM | C=CC(=O)NC1COCC1Nc1ncc2c(n1)N(Cc1cscn1)C(=O)N(c1c(Cl)c(OC)cc(OC)c1Cl)C2 (stereo not shown) [Compound I-210] |
| < 100 nM | C=CC(=O)NC1COCC1Nc1ncc2c(n1)N(CC1CC1)C(=O)N(c1c(Cl)c(OC)cc(OC)c1Cl)C2 (stereo not shown) [Compound I-212] |
| < 100 nM | C=CC(=O)NC1COCC1Nc1ncc2c(n1)N(Cc1cnn(C)c1)C(=O)N(c1c(Cl)c(OC)cc(OC)c1Cl)C2 (stereo not shown) [Compound I-213] |
| 101 to 500 nM | C=CC(=O)NC1COCC1Nc1ncc2c(n1)N(Cc1cn[nH]c1)C(=O)N(c1c(Cl)c(OC)cc(OC)c1Cl)C2 (stereo not shown) [Compound I-214] |
| < 100 nM | C=CC(=O)NC1COCC1Nc1ncc2c(n1)N(Cc1ccn(C)n1)C(=O)N(c1c(Cl)c(OC)cc(OC)c1Cl)C2 (stereo not shown) [Compound I-215] |
| 101 to 500 nM | C=CC(=O)NC1COCC1Nc1ncc2c(n1)N(Cc1cc[nH]n1)C(=O)N(c1c(Cl)c(OC)cc(OC)c1Cl)C2 (stereo not shown) [Compound I-216] |
| < 100 nM | C=CC(=O)NC1COCC1Nc1ncc2c(n1)N(CC)C(=O)N(c1c(Cl)c(OC)cc(OC)c1Cl)C2 (stereo not shown) [Compound I-217] |
| 501 to 999 nM | C=CC(=O)N[C@H]1CCCC[C@H]1Nc1ncc2c(n1)N(C)C(=O)N(c1c(Cl)c(OCC)cc(OCC)c1Cl)C2 [Compound I-219] |
| > 1000 nM | C=CC(=O)N[C@H]1CCCC[C@H]1Nc1ncc2c(n1)N(C)C(=O)N(c1cc(OC)c(OC)c(OC)c1)C2 [Compound I-220] |

| Structure (SMILES) | EC50 |
| --- | --- |
| C=CC(=O)Nc1cc(C(F)(F)F)ccc1Nc1ncc2c(n1)N(Cc1ccccc1)C(=O)N(c1c(Cl)c(OC)cc(OC)c1Cl)C2 [Compound I-6] | 101 to 500 nM |
| C=CC(=O)NC1COCC1Nc1ncc2c(n1)N(C)C(=O)N(c1c(Cl)c(OCC)cc(OCC)c1Cl)C2 (stereo not shown) [Compound I-205] | 101 to 500 nM |
| C=CC(=O)NC1COCC1Nc1ncc2c(n1)N(C)C(=O)N(c1cc(OC)c(OC)c(OC)c1)C2 (stereo not shown) [Compound I-207] | > 1000 nM |
| C=CC(=O)NC1COCC1Nc1ncc2c(n1)N(C)C(=O)N(c1c(Cl)c(OC)c(OC)c(OC)c1Cl)C2 (stereo not shown) [Compound I-208] | > 1000 nM |
| C=CC(=O)N(C)C1COCC1Nc1ncc2c(n1)N(C)C(=O)N(c1c(Cl)c(OC)cc(OC)c1Cl)C2 (stereo not shown) [Compound I-218] | > 1000 nM |
| C=CC(=O)N[C@H]1CCCC[C@H]1Nc1ncc2c(n1)N(C)C(=O)N(c1c(Cl)c(OC)c(OC)c(OC)c1Cl)C2 [Compound I-221] | > 1000 nM |

— patent US10774052B2, “Heteroaryl compounds and uses thereof” (Celgene CAR LLC, priority 2013, dated 2020)
